Experiment [1] relates to isolated rabbit urinary bladder. Briefly: Relaxation effect on potassium-induced contraction of isolated rabbit urinary bladder. It is filed as cell-based. As to conditions: Oryctolagus cuniculus; 50% relaxation concentration; high-K+ (30 mM) pre-contracted rabbit bladder strips; relaxation as percentage of the maximum produced by 0.1 mM papaverine; read-out: EC50 value range. In short, it runs like this: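 Mucosa-free longitudinal bladder strips from male NZW rabbits, held at 37 °C in Krebs solution gassed with 95% O2/5% CO2, were precontracted with 30 mM K+. Compounds were added cumulatively (10^−8–10^−4 M), with isometric relaxation expressed relative to 0.1 mM papaverine maximum. EC50 was derived and reported as rank ranges.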

The subject of experiment [2] is rhythmic bladder contractions induced by substance P. In words: Inhibitory effect on the rhythmic bladder contractions induced by substance P in anesthetized rats. As to conditions: time during which frequency of rhythmic contraction was completely inhibited, 0.25 mg/kg of the compound, substance P infusion. It counts as in vivo, rat. The method, boiled down:
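Urethane-anesthetized female Sprague-Dawley rats with rhythmic bladder contractions driven by i.v. substance P (0.33 μg/kg/min). Compound given i.v. in saline/0.5% Tween 80 once contractions stable 15 min; intravesical pressure monitored, duration of 100% inhibition ranked A ≥20, B ≥10, C <10 min.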

The structures appear in SMILES notation.

What is called EC50 is the midpoint of the concentration-response curve.

`Cc1cc(-c2nc(CC(=O)O)c(-c3ccc(Cl)s3)o2)on1` [Preparation Example 278]: the EC50 in experiment [1] lay in the range of 0.5 to 1 µM. Besides, the “100% inhibition time range” value in experiment [2] is on record as “B (A≧20>B≧10>C (minute))”.
On the same counts, the results for `O=C(O)Cc1nc(-c2cc3ccccc3s2)sc1-c1ccc(Cl)s1` [Preparation Example 610] are ≤ 0.5 µM and “B (A≧20>B≧10>C (minute))”.
`O=C(O)/C=C/c1nc(-c2ccc(F)cc2)oc1-c1ccc(Cl)s1` [Preparation Example 626]: the EC50 in experiment [1] lay within 1 to 3 µM. Moreover, the “100% inhibition time range” value in experiment [2] is “C (A≧20>B≧10>C (minute))”.
Regarding `O=C(O)Cc1sc(-c2ccc(F)cc2)nc1-c1ccc(Cl)c(F)c1` [Preparation Example 584], the EC50 in experiment [1] was 1 to 3 µM. For the same compound, the “100% inhibition time range” value in experiment [2] is recorded as “A (A≧20>B≧10>C (minute))”.
In the same order, the values of `C[S+]([O-])Cc1nc(-c2ccc(F)cc2)[nH]c1-c1ccsc1` (centres unmarked) [Preparation Example 181] are 0.5 to 1 µM and “B (A≧20>B≧10>C (minute))”.
As to `COc1ccc(-c2nc(CC(=O)O)c(-c3ccccc3F)o2)cc1` [Preparation Example 247], in experiment [1], the EC50 was 1 to 3 µM. In addition, the “100% inhibition time range” value in experiment [2] was “C (A≧20>B≧10>C (minute))”.
With `O=C(O)Cc1nc(-c2ccccc2)oc1-c1ccc(Cl)s1` [Preparation Example 279], in experiment [1], the EC50 was ≤ 0.5 µM. Further, in experiment [2], the “100% inhibition time range” value is on record as “C (A≧20>B≧10>C (minute))”.
On the same counts, the results for `O=C(O)Cc1nc(-c2ccc3ncccc3c2)oc1-c1ccc(Cl)s1` [Preparation Example 284] are 1 to 3 µM and “B (A≧20>B≧10>C (minute))”.
Turning to `CC(C)c1ccc(-c2oc(-c3ccc(F)cc3)nc2CC(=O)O)cc1` [Preparation Example 248], the EC50 in experiment [1] was 1 to 3 µM. Moreover, in experiment [2], the “100% inhibition time range” value is “B (A≧20>B≧10>C (minute))”.
On to `COc1ccc(-c2nc(-c3ccc(Cl)cc3)c(CC(=O)O)s2)cc1` [Preparation Example 575], for which, in experiment [1], the EC50 is ≤ 0.5 µM. Moreover, in experiment [2], the “100% inhibition time range” value was “B (A≧20>B≧10>C (minute))”.
In the same order, the values of `COCc1ccc(-c2nc(CC(=O)O)c(-c3ccc(Cl)s3)o2)cn1` [Preparation Example 464] are 1 to 3 µM and “C (A≧20>B≧10>C (minute))”.
On the same counts, the results for `O=C(O)Cc1nc(-c2ccc(Cl)cc2)oc1-c1ccc(Br)s1` [Preparation Example 245] are 1 to 3 µM and “C (A≧20>B≧10>C (minute))”.
On the same counts, the results for `O=C(O)Cc1nc(-c2ccc(F)cc2)oc1-c1csc(Cl)c1` [Preparation Example 286] are ≤ 0.5 µM and “C (A≧20>B≧10>C (minute))”.
`Cl.N#CCCc1[nH]c(-c2ccc(F)cc2)nc1-c1ccccc1O` [Preparation Example 350, 5-(2-cyanoethyl)-2-(4-fluorophenyl)-4-(2-hydroxyphenyl)-imidazole hydrochloride]: the EC50 in experiment [1] was 1 to 3 µM. Also, the “100% inhibition time range” value in experiment [2] is “B (A≧20>B≧10>C (minute))”.
In the same order, the values of `CN(C)c1ncc(-c2nc(-c3ccc(Cl)cc3)c(CC(=O)O)s2)cn1` [Preparation Example 601] are 0.5 to 1 µM and “A (A≧20>B≧10>C (minute))”.
In the same order, the values of `CCc1nc(-c2cccc(Cl)c2)[nH]c1-c1cccnc1` [Preparation example 13] are ≤ 0.5 µM and “C (A≧20>B≧10>C (minute))”.
In the same order, the values of `COc1ccc(-c2nc(-c3cccs3)c(CC(=O)O)s2)cc1` [Preparation Example 578] are 0.5 to 1 µM and “B (A≧20>B≧10>C (minute))”.
Turning to `COc1ccc(-c2nc(CC(=O)O)c(-c3cccs3)o2)cc1` [Preparation Example 155], the EC50 in experiment [1] was 1 to 3 µM. Further, the “100% inhibition time range” value in experiment [2] is “B (A≧20>B≧10>C (minute))”.
In the same order, the values of `Cc1nc(-c2ccc(F)cc2)[nH]c1-c1ccsc1` [Preparation Example 168] are 0.5 to 1 µM and “B (A≧20>B≧10>C (minute))”.
